In ChEMBL document CHEMBL5096164, “In Vivo Profiling of a Natural Alkaloid, Anatabine, in Rodents: Pharmacokinetics and Anti-Inflammatory Efficacy” (J Nat Prod, 2021):
Calls of active or inactive are those of the source. The rule behind the calls is not given here.

Legend:
Mus musculus [1] = experiment: Antiinflammatory activity in ip /LPS induced mouse model assessed as reduction in tumor necrosis factor alpha level in plasma preincubated for 1 hr followed by LPS stimulation and measured after 2 hrs by ELISA method; assay type: functional, organism-based; conditions: dose 1-5 mg/kg, DDE = dose-dependent effect
[2] = Drug uptake in MOG (35 to 55 residues)-induced experimental autoimmune encephalomyelitis mouse aerosol at 25 microg/L by LC-MS/MS analysis; assay type: ADME; conditions: in vivo, inhaled_or_intranasal, dose 25 µg/L
[3] = Clearance in Wistar rat plasma at 2 mg/kg, iv administered as bolus dose measured after 5 to 360 mins by LC-MS/MS analysis; assay type: ADME, organism-based; conditions: time 5-360 min
[4] = Antiinflammatory activity in MOG (35 to 55 residues)-induced experimental autoimmune encephalomyelitis mouse aerosol assessed as reduction in clinical score at 25 microg/L measured on 16 day (reference value: 2.0); assay type: ADME; conditions: inhaled_or_intranasal, 384 h, dose 25 µg/L
Rattus norvegicus [5] = experiment: Antiinflammatory activity in carrageenan-induced paw edema rat model assessed as inhibition of paw swelling at 5 mg/kg, ip measured at 2 hrs relative to control; assay type: functional; parameters: scale not given: the % may be the effect or the level left
[6] = Drug uptake in MOG (35 to 55 residues)-induced experimental autoimmune encephalomyelitis immunized mouse in plasma at 50 microg/L by LC-MS/MS analysis; assay type: ADME; conditions: dose 50 µg/L
Rattus norvegicus [7] = experiment: Antiinflammatory activity in carrageenan-induced paw edema rat model assessed as recovery of adverse effect at hypothermia at 5 mg/kg, ip or 20 mg/kg administered daily via whole body inhalation; assay type: functional, organism-based
Rattus norvegicus [8] = experiment: Antiinflammatory activity in carrageenan-induced paw edema rat model assessed as recovery of adverse effect at tremor at 5 mg/kg, ip or 20 mg/kg administered daily via whole body inhalation; assay type: functional, organism-based
[9] = AUC in rat at 2.73 mg/kg via inhalation; assay type: ADME, organism-based; parameters: dose 2.73 mg/kg, route inh; conditions: in vivo, inhaled or intranasal
[10] = Cmax in rat at 0.06 mg/kg via inhalation; assay type: ADME, organism-based; parameters: dose 0.06 mg/kg, route inh; conditions: in vivo, inhaled or intranasal
[11] = Tmax in C57BL/6 brain at 2 mg/kg, ip measured after 3 to 240 mins by LC-MS/MS analysis; assay type: ADME, organism-based; conditions: C57BL/6, mouse, time 3-240 min
[12] = Half life in Wistar rat plasma at 2 mg/kg, iv administered as bolus dose measured after 5 to 360 mins by LC-MS/MS analysis; assay type: ADME, organism-based; conditions: time 5-360 min
[13] = AUC in rat at 0.06 mg/kg via inhalation; assay type: ADME, organism-based; parameters: dose 0.06 mg/kg, route inh; conditions: in vivo, inhaled or intranasal
Mus musculus [14] = experiment: Antiinflammatory activity LPS induced mouse model assessed as reduction in IL-5 at 1 to 5 mg/kg, ip preincubated for 1 hr followed by LPS stimulation and measured after 2 hrs by luminex xMAP bead based assay; assay type: functional, organism-based; conditions: dose 1-5 mg/kg, time 3.0 hrs
[15] = Drug uptake in MOG (35 to 55 residues)-induced experimental autoimmune encephalomyelitis unimmunized mouse in plasma at 50 microg/L by LC-MS/MS analysis; assay type: ADME; conditions: dose 50 µg/L
[16] = Bioavailability in rat at 0.06 mg/kg via inhalation; assay type: ADME, organism-based; conditions: in vivo, inhaled or intranasal, route inh
[17] = Half life in C57BL/6 mouse brain at 2 mg/kg, ip measured after 3 to 240 mins by LC-MS/MS analysis; assay type: ADME, organism-based; conditions: time 3-240 min
[18] = AUC in C57BL/6 plasma at 2 mg/kg, ip measured after 3 to 240 mins by LC-MS/MS analysis; assay type: ADME, organism-based; parameters: time 3-240 min, dose 2 mg/kg, route ip; conditions: C57BL/6, mouse
[19] = Ratio of Cmax in C57BL/6 mouse brain to plasma at 2 mg/kg, ip measured after 3 to 240 mins by LC-MS/MS analysis; assay type: ADME, organism-based; conditions: brain and plasma, time 3-240 min, read-out: BPR
Mus musculus [20] = experiment: Antiinflammatory activity in ip induced Wistar mouse model of carrageenan-induced paw edema assessed as reduction in paw thickness administered 10 mins prior to carrageenan induction and measured upto 5 hrs; assay type: functional, organism-based; conditions: dose 1-5 mg/kg, time 310.0 min, DDE = dose-dependent effect
[21] = Drug uptake in rat aerosol at 2.5 microg/L via inhalation measured for 30 mins; assay type: ADME; conditions: in vivo, inhaled_or_intranasal, 0.5 h, route inh, dose 2.5 µg/L
[22] = Drug concentration in carrageenan-induced paw edema in rat respiratory tract at 230.7 microg/L via inhalation measured for 30 mins; assay type: ADME; conditions: inhaled or intranasal, route inh, dose 230.7 µg/L, read-out: Drug uptake
[23] = Bioavailability in rat at 2.73 mg/kg via inhalation; assay type: ADME, organism-based; conditions: in vivo, inhaled or intranasal, route inh
[24] = Cmax in rat at 0.40 mg/kg via inhalation; assay type: ADME, organism-based; parameters: dose 0.4 mg/kg, route inh; conditions: in vivo, inhaled or intranasal, 0.4 mg/kg
Rattus norvegicus [25] = experiment: Antiinflammatory activity in carrageenan-induced paw edema rat model assessed as inhibition of paw swelling at 5.34 mg/kg via inhalation measured at 2 hrs relative to control; assay type: functional; parameters: scale not given: the % may be the effect or the level left; conditions: route inh
[26] = Cmax in Wistar rat plasma at 5 mg/kg, ip administered as bolus dose measured after 5 to 360 mins by LC-MS/MS analysis; assay type: ADME, organism-based; parameters: dose 5 mg/kg, time upper 360 min, time lower 5 min, route ip
Mus musculus [27] = species: Mus musculus; experiment: Antiinflammatory activity in MOG (35 to 55 residues)-induced experimental autoimmune encephalomyelitis mouse aerosol assessed as attenuation of body weight loss at 50 microg/L; assay type: functional, organism-based; conditions: dose 50.0 µg/L
[28] = AUC in Wistar rat plasma at 5 mg/kg, ip administered as bolus dose measured after 5 to 360 mins by LC-MS/MS analysis; assay type: ADME, organism-based; parameters: dose 5 mg/kg, time upper 360 min, time lower 5 min, route ip
[29] = Cmax in C57BL/6 brain at 2 mg/kg, ip measured after 3 to 240 mins by LC-MS/MS analysis; assay type: ADME, organism-based; parameters: time upper 240 min, time lower 3 min, dose 2 mg/kg, route ip; conditions: C57BL/6, mouse
Mus musculus [30] = experiment: Antiinflammatory activity LPS induced mouse model assessed as reduction in granulocyte-macrophage colony stimulating factor at 1 to 5 mg/kg, ip preincubated for 1 hr followed by LPS stimulation and measured after 2 hrs by luminex xMAP bead based assay; assay type: functional, organism-based; conditions: dose 1-5 mg/kg, time 3.0 hrs
Mus musculus [31] = experiment: Antiinflammatory activity LPS induced mouse model assessed as reduction in IL-1 beta at 1 to 5 mg/kg, ip preincubated for 1 hr followed by LPS stimulation and measured after 2 hrs by luminex xMAP bead based assay; assay type: functional, organism-based; conditions: dose 1-5 mg/kg, time 3.0 hrs
[32] = Half life in rat at 0.40 mg/kg via inhalation; assay type: ADME, organism-based; conditions: in vivo, inhaled or intranasal, route inh, dose 0.4 mg/kg
[33] = Half life in rat at 0.06 mg/kg via inhalation; assay type: ADME, organism-based; conditions: in vivo, inhaled or intranasal, route inh
[34] = Cmax in C57BL/6 plasma at 2 mg/kg, ip measured after 3 to 240 mins by LC-MS/MS analysis; assay type: ADME, organism-based; parameters: time 3-240 min, dose 2 mg/kg, route ip; conditions: C57BL/6, mouse
Mus musculus [35] = experiment: Antiinflammatory activity LPS induced mouse model assessed as reduction in interferon gamma induced protein 10 at 1 to 5 mg/kg, ip preincubated for 1 hr followed by LPS stimulation and measured after 2 hrs by luminex xMAP bead based assay; assay type: functional, organism-based; conditions: dose 1-5 mg/kg, time 3.0 hrs
[36] = Half life in C57BL/6 mouse plasma at 2 mg/kg, ip measured after 3 to 240 mins by LC-MS/MS analysis; assay type: ADME, organism-based; conditions: time 3-240 min

C1=CCC(c2cccnc2)NC1 (stereo unspecified)
Activity (Mus musculus [1]): Dde
Drug uptake [2]: 24.8 ng/mL
clearance [3]: 8.11 mL/min/kg
Activity [4]: 1.1
Activity (Rattus norvegicus [5]): 46.1%
Cp [6]: 1139.7 ng/mL
Activity (Rattus norvegicus [7]): Active
Activity (Rattus norvegicus [8]): Active
AUC [9]: 3060 ng·h/mL
Cmax [10]: 20 ng/mL
Tmax [11]: 7.2 min
half-life [12]: 83.4 min
AUC [13]: 91.2 ng·h/mL
Activity (Mus musculus [14]): Active
Cp [15]: 1202.5 ng/mL
bioavailability [16]: 76.5%
half-life [17]: 21.6 min
AUC [18]: 430 ng·h/mL
Kp [19]: 2.5
Activity (Mus musculus [20]): Dde
Drug uptake [21]: 2.5 µg/L
concentration at 0.5 h [22]: 2.42 ng/mL
bioavailability [23]: 56.4%
Cmax [24]: 160 ng/mL
Activity (Rattus norvegicus [25]): 39.6%
Cmax [26]: 2730 ng/mL
Activity (Mus musculus [27]): Active
AUC [28]: 6820 ng·h/mL
Cmax [29]: 3380 ng/mL
Activity (Mus musculus [30]): Active
Activity (Mus musculus [31]): Active
half-life [32]: 230 min
half-life [33]: 238 min
Cmax [34]: 1370 ng/mL
Activity (Mus musculus [35]): Active
half-life [36]: 12.6 min
